Experimental data reported in the CheMixHub viscosity set.
± gives the uncertainty stated by the source.

Experiment: xn = mol fraction of the nth substance listed

OC[C@@H](O)[C@@H](O)[C@H](O)[C@@H](O)CO + O
viscosity (293.15 K, 101 kPa, x1 = 0.0142): 1.458 ± 0.023 mPa·s
viscosity (303.15 K, 101 kPa, x1 = 0.002): 0.8134 ± 0.01 mPa·s
viscosity (303.15 K, 101 kPa, x1 = 0.003592): 0.8731 ± 0.015 mPa·s
viscosity (303.15 K, 101 kPa, x1 = 0.004): 0.8647 ± 0.011 mPa·s
viscosity (303.15 K, 101 kPa, x1 = 0.006): 0.916 ± 0.012 mPa·s
viscosity (303.15 K, 101 kPa, x1 = 0.007154): 0.948 ± 0.015 mPa·s
viscosity (303.15 K, 101 kPa, x1 = 0.0078): 0.9637 ± 0.048 mPa·s
viscosity (303.15 K, 101 kPa, x1 = 0.008): 0.9675 ± 0.012 mPa·s
viscosity (303.15 K, 101 kPa, x1 = 0.0089): 0.9962 ± 0.049 mPa·s
viscosity (303.15 K, 101 kPa, x1 = 0.01): 1.019 ± 0.013 mPa·s
viscosity (303.15 K, 101 kPa, x1 = 0.012): 1.071 ± 0.014 mPa·s
viscosity (303.15 K, 101 kPa, x1 = 0.0122): 1.072 ± 0.052 mPa·s
viscosity (303.15 K, 101 kPa, x1 = 0.0135): 1.104 ± 0.054 mPa·s
viscosity (303.15 K, 101 kPa, x1 = 0.016): 1.175 ± 0.015 mPa·s
viscosity (303.15 K, 101 kPa, x1 = 0.0194): 1.277 ± 0.061 mPa·s
viscosity (303.15 K, 101 kPa, x1 = 0.02): 1.279 ± 0.016 mPa·s
viscosity (303.15 K, 101 kPa, x1 = 0.0228): 1.345 ± 0.064 mPa·s
viscosity (303.15 K, 101 kPa, x1 = 0.024): 1.383 ± 0.017 mPa·s
viscosity (303.15 K, 101 kPa, x1 = 0.026): 1.436 ± 0.018 mPa·s
viscosity (303.15 K, 101 kPa, x1 = 0.028): 1.489 ± 0.018 mPa·s
viscosity (305.15 K, 100 kPa, x1 = 4e-05): 0.8093 ± 0.017 mPa·s
viscosity (305.15 K, 100 kPa, x1 = 7e-05): 0.8135 ± 0.017 mPa·s
viscosity (308.15 K, 101 kPa, x1 = 0.004): 0.7869 ± 0.01 mPa·s
viscosity (308.15 K, 101 kPa, x1 = 0.006): 0.8221 ± 0.011 mPa·s
viscosity (308.15 K, 101 kPa, x1 = 0.008): 0.8763 ± 0.011 mPa·s
viscosity (308.15 K, 101 kPa, x1 = 0.01): 0.9231 ± 0.012 mPa·s
viscosity (308.15 K, 101 kPa, x1 = 0.012): 0.9658 ± 0.012 mPa·s
viscosity (308.15 K, 101 kPa, x1 = 0.014): 1.008 ± 0.013 mPa·s
viscosity (308.15 K, 101 kPa, x1 = 0.016): 1.054 ± 0.013 mPa·s
viscosity (308.15 K, 101 kPa, x1 = 0.018): 1.105 ± 0.014 mPa·s
viscosity (308.15 K, 101 kPa, x1 = 0.02): 1.147 ± 0.014 mPa·s
viscosity (308.15 K, 101 kPa, x1 = 0.022): 1.203 ± 0.015 mPa·s
viscosity (308.15 K, 101 kPa, x1 = 0.024): 1.245 ± 0.016 mPa·s
viscosity (308.15 K, 101 kPa, x1 = 0.026): 1.291 ± 0.016 mPa·s
viscosity (308.15 K, 101 kPa, x1 = 0.028): 1.355 ± 0.017 mPa·s
viscosity (310.15 K, 100 kPa, x1 = 4e-05): 0.7489 ± 0.016 mPa·s
viscosity (310.15 K, 100 kPa, x1 = 7e-05): 0.7596 ± 0.016 mPa·s
viscosity (313.15 K, 101 kPa, x1 = 0.002): 0.6825 ± 0.0089 mPa·s
viscosity (313.15 K, 101 kPa, x1 = 0.004): 0.7202 ± 0.0094 mPa·s
viscosity (313.15 K, 101 kPa, x1 = 0.006): 0.7581 ± 0.0098 mPa·s
viscosity (313.15 K, 101 kPa, x1 = 0.007154): 0.7675 ± 0.013 mPa·s
viscosity (313.15 K, 101 kPa, x1 = 0.0078): 0.7956 ± 0.041 mPa·s
viscosity (313.15 K, 101 kPa, x1 = 0.008): 0.7961 ± 0.01 mPa·s
viscosity (313.15 K, 101 kPa, x1 = 0.0089): 0.815 ± 0.041 mPa·s
viscosity (313.15 K, 101 kPa, x1 = 0.01): 0.8344 ± 0.011 mPa·s
viscosity (313.15 K, 101 kPa, x1 = 0.0107): 0.834 ± 0.014 mPa·s
viscosity (313.15 K, 101 kPa, x1 = 0.012): 0.8728 ± 0.011 mPa·s
viscosity (313.15 K, 101 kPa, x1 = 0.0122): 0.8704 ± 0.044 mPa·s
viscosity (313.15 K, 101 kPa, x1 = 0.014): 0.9114 ± 0.012 mPa·s
viscosity (313.15 K, 101 kPa, x1 = 0.016): 0.9502 ± 0.012 mPa·s
viscosity (313.15 K, 101 kPa, x1 = 0.0169): 0.9712 ± 0.048 mPa·s
viscosity (313.15 K, 101 kPa, x1 = 0.0177): 0.9777 ± 0.016 mPa·s
viscosity (313.15 K, 101 kPa, x1 = 0.018): 0.9891 ± 0.013 mPa·s
viscosity (313.15 K, 101 kPa, x1 = 0.022): 1.068 ± 0.013 mPa·s
viscosity (313.15 K, 101 kPa, x1 = 0.0228): 1.077 ± 0.053 mPa·s
viscosity (313.15 K, 101 kPa, x1 = 0.024): 1.107 ± 0.014 mPa·s
viscosity (313.15 K, 101 kPa, x1 = 0.026): 1.147 ± 0.014 mPa·s
viscosity (313.15 K, 101 kPa, x1 = 0.028): 1.187 ± 0.015 mPa·s
viscosity (315.15 K, 100 kPa, x1 = 4e-05): 0.7083 ± 0.015 mPa·s
viscosity (315.15 K, 100 kPa, x1 = 7e-05): 0.7362 ± 0.015 mPa·s
viscosity (318.15 K, 101 kPa, x1 = 0.004): 0.6625 ± 0.0087 mPa·s
viscosity (318.15 K, 101 kPa, x1 = 0.006): 0.6978 ± 0.0091 mPa·s
viscosity (318.15 K, 101 kPa, x1 = 0.008): 0.7286 ± 0.0095 mPa·s
viscosity (318.15 K, 101 kPa, x1 = 0.01): 0.7647 ± 0.0099 mPa·s
viscosity (318.15 K, 101 kPa, x1 = 0.012): 0.796 ± 0.01 mPa·s
viscosity (318.15 K, 101 kPa, x1 = 0.014): 0.8293 ± 0.011 mPa·s
viscosity (318.15 K, 101 kPa, x1 = 0.016): 0.8716 ± 0.011 mPa·s
viscosity (318.15 K, 101 kPa, x1 = 0.018): 0.9013 ± 0.011 mPa·s
viscosity (318.15 K, 101 kPa, x1 = 0.02): 0.9433 ± 0.012 mPa·s
viscosity (318.15 K, 101 kPa, x1 = 0.022): 0.9822 ± 0.012 mPa·s
viscosity (318.15 K, 101 kPa, x1 = 0.024): 1.015 ± 0.013 mPa·s
viscosity (318.15 K, 101 kPa, x1 = 0.026): 1.06 ± 0.013 mPa·s
viscosity (318.15 K, 101 kPa, x1 = 0.028): 1.089 ± 0.014 mPa·s
viscosity (323.15 K, 101 kPa, x1 = 0.002): 0.5854 ± 0.0077 mPa·s
viscosity (323.15 K, 101 kPa, x1 = 0.003592): 0.5894 ± 0.01 mPa·s
viscosity (323.15 K, 101 kPa, x1 = 0.004): 0.6131 ± 0.0081 mPa·s
viscosity (323.15 K, 101 kPa, x1 = 0.006): 0.6414 ± 0.0084 mPa·s
viscosity (323.15 K, 101 kPa, x1 = 0.0078): 0.6663 ± 0.035 mPa·s
viscosity (323.15 K, 101 kPa, x1 = 0.008): 0.6702 ± 0.0087 mPa·s
viscosity (323.15 K, 101 kPa, x1 = 0.0089): 0.685 ± 0.036 mPa·s
viscosity (323.15 K, 101 kPa, x1 = 0.01): 0.6996 ± 0.0091 mPa·s
viscosity (323.15 K, 101 kPa, x1 = 0.0103): 0.7078 ± 0.037 mPa·s
viscosity (323.15 K, 101 kPa, x1 = 0.0107): 0.6878 ± 0.012 mPa·s
viscosity (323.15 K, 101 kPa, x1 = 0.0112): 0.716 ± 0.037 mPa·s
viscosity (323.15 K, 101 kPa, x1 = 0.012): 0.7295 ± 0.0094 mPa·s
viscosity (323.15 K, 101 kPa, x1 = 0.0122): 0.7288 ± 0.038 mPa·s
viscosity (323.15 K, 101 kPa, x1 = 0.014): 0.76 ± 0.0098 mPa·s
viscosity (323.15 K, 101 kPa, x1 = 0.0142): 0.7324 ± 0.012 mPa·s
viscosity (323.15 K, 101 kPa, x1 = 0.015): 0.7741 ± 0.04 mPa·s
viscosity (323.15 K, 101 kPa, x1 = 0.016): 0.791 ± 0.01 mPa·s
viscosity (323.15 K, 101 kPa, x1 = 0.0169): 0.8041 ± 0.041 mPa·s
viscosity (323.15 K, 101 kPa, x1 = 0.0177): 0.7979 ± 0.013 mPa·s
viscosity (323.15 K, 101 kPa, x1 = 0.018): 0.8226 ± 0.01 mPa·s
viscosity (323.15 K, 101 kPa, x1 = 0.0194): 0.8507 ± 0.043 mPa·s
viscosity (323.15 K, 101 kPa, x1 = 0.02): 0.8547 ± 0.011 mPa·s
viscosity (323.15 K, 101 kPa, x1 = 0.022): 0.8874 ± 0.011 mPa·s
viscosity (323.15 K, 101 kPa, x1 = 0.0228): 0.8982 ± 0.045 mPa·s
viscosity (323.15 K, 101 kPa, x1 = 0.024): 0.9206 ± 0.012 mPa·s
viscosity (323.15 K, 101 kPa, x1 = 0.026): 0.9544 ± 0.012 mPa·s
viscosity (323.15 K, 101 kPa, x1 = 0.028): 0.9887 ± 0.013 mPa·s
